Values of other authors as cited in patent publication US20160115147A1, “PRO-DRUG COMPOUNDS” (Proximagen Limited, priority 2013, published 2016).

Key:
[1] = tested on: unique stereo-selective site in human brain
[2] = tested on: unique stereo-selective site in rat brain

binding affinity to unique stereo-selective site [1]: high affinity | binding affinity to unique stereo-selective site [2]: high affinity
Compound: CC(=O)c1ccc2c(c1)[C@H](NC(=O)c1ccc(F)c(Cl)c1)[C@H](O)C(C)(C)O2 [Tonabersat]
